Data: the NIST ThermoML archive (doi:10.1016/j.jct.2006.10.017)

Experiments:
[1] = refractive index (Na D-line) (dimensionless); details: 101.33 kPa, Liquid
[2] = 101 kPa, Liquid
[3] = refractive index (Na D-line) (dimensionless); xn = mol fraction of the nth substance listed; details: 101 kPa, Liquid
[4] = xn = mol fraction of the nth substance listed; details: 101 kPa, Liquid

CCO [ethanol]
Details	mass density, 293.15 K [kg/m3]	mass density, 298.15 K [kg/m3]	mass density, 303.15 K [kg/m3]	refractive index, 293.15 K	refractive index, 298.15 K	refractive index, 303.15 K	speed of sound, 293.15 K [m/s]	speed of sound, 298.15 K [m/s]	speed of sound, 303.15 K [m/s]
[1]	–	–	–	1.36138	1.35929	1.35725	–	–	–
[2]	789.3	785.1	780.7	–	–	–	1160	1143	1127

CCCCCCn1cc[n+](C)c1.F[P-](F)(F)(F)(F)F [1-hexyl-3-methylimidazolium hexafluorophosphate]
Details	mass density, 293.15 K [kg/m3]	mass density, 298.15 K [kg/m3]	mass density, 303.15 K [kg/m3]	refractive index, 293.15 K	refractive index, 298.15 K	refractive index, 303.15 K	speed of sound, 293.15 K [m/s]	speed of sound, 298.15 K [m/s]	speed of sound, 303.15 K [m/s]
[1]	–	–	–	1.41923	1.41787	1.41643	–	–	–
[2]	1297.9	1293.7	1289.6	–	–	–	1438	1424	1411

COS(=O)(=O)[O-].Cn1cc[n+](C)c1 [1,3-dimethylimidazolium methylsulfate]
Details	mass density, 293.15 K [kg/m3]	mass density, 298.15 K [kg/m3]	mass density, 303.15 K [kg/m3]	refractive index, 293.15 K	refractive index, 298.15 K	refractive index, 303.15 K	speed of sound, 293.15 K [m/s]	speed of sound, 298.15 K [m/s]	speed of sound, 303.15 K [m/s]
[1]	–	–	–	1.48392	1.4827	1.48129	–	–	–
[2]	1330.9	1327.2	1323.7	–	–	–	1826	1813	1801

CCCCn1cc[n+](C)c1.COS(=O)(=O)[O-] [1-butyl-3-methylimidazolium methyl sulfate]
Details	mass density, 293.15 K [kg/m3]	mass density, 298.15 K [kg/m3]	mass density, 303.15 K [kg/m3]	refractive index, 293.15 K	refractive index, 298.15 K	refractive index, 303.15 K	speed of sound, 293.15 K [m/s]	speed of sound, 298.15 K [m/s]	speed of sound, 303.15 K [m/s]
[1]	–	–	–	1.48077	1.47942	1.47806	–	–	–
[2]	1215.6	1212.2	1208.8	–	–	–	1671	1658	1645

CCCCCCCC[n+]1ccn(C)c1.F[P-](F)(F)(F)(F)F [1-octyl-3-methylimidazolium hexafluorophosphate]
Details	mass density, 293.15 K [kg/m3]	mass density, 298.15 K [kg/m3]	mass density, 303.15 K [kg/m3]	refractive index, 293.15 K	refractive index, 298.15 K	refractive index, 303.15 K	speed of sound, 293.15 K [m/s]	speed of sound, 298.15 K [m/s]	speed of sound, 303.15 K [m/s]
[1]	–	–	–	1.4244	1.42302	1.42165	–	–	–
[2]	1239.6	1235.7	1231.9	–	–	–	1424	1408	1393

CCCCn1cc[n+](C)c1.COS(=O)(=O)[O-] [1-butyl-3-methylimidazolium methyl sulfate] + CCO
Details	mass density, 293.15 K [kg/m3]	mass density, 298.15 K [kg/m3]	mass density, 303.15 K [kg/m3]	refractive index, 293.15 K	refractive index, 298.15 K	refractive index, 303.15 K	speed of sound, 293.15 K [m/s]	speed of sound, 298.15 K [m/s]	speed of sound, 303.15 K [m/s]
[3], x1 = 0.0501	–	–	–	1.38149	1.3797	1.37885	–	–	–
[3], x1 = 0.1015	–	–	–	1.39827	1.39667	1.39541	–	–	–
[3], x1 = 0.1961	–	–	–	1.42043	1.41884	1.41656	–	–	–
[3], x1 = 0.299	–	–	–	1.43625	1.43478	1.43335	–	–	–
[3], x1 = 0.3914	–	–	–	1.44713	1.4456	1.44408	–	–	–
[3], x1 = 0.5025	–	–	–	1.45714	1.45586	1.45509	–	–	–
[3], x1 = 0.6073	–	–	–	1.46429	1.46284	1.46136	–	–	–
[3], x1 = 0.6982	–	–	–	1.46926	1.4678	1.46639	–	–	–
[3], x1 = 0.8002	–	–	–	1.47391	1.47249	1.47111	–	–	–
[3], x1 = 0.8992	–	–	–	1.47757	1.47623	1.47485	–	–	–
[3], x1 = 0.9498	–	–	–	1.47901	1.47766	1.47622	–	–	–
[3], x1 = 1	–	–	–	1.48077	1.47942	1.47806	–	–	–
[4], x1 = 0.0501	860.2	856.4	852.2	–	–	–	1218	1203	1189
[4], x1 = 0.1015	916.9	913	909	–	–	–	1277	1262	1248
[4], x1 = 0.1961	993.7	990	986.2	–	–	–	1358	1343	1324
[4], x1 = 0.299	1052.2	1048.6	1044.9	–	–	–	1425	1412	1392
[4], x1 = 0.3914	1091.3	1087.8	1084.1	–	–	–	1479	1466	1446
[4], x1 = 0.5025	1127.3	1123.7	1120.1	–	–	–	1538	1525	1508
[4], x1 = 0.6073	1153.5	1150	1146.5	–	–	–	1576	1563	1553
[4], x1 = 0.6982	1172	1168.5	1165	–	–	–	1598	1584	1574
[4], x1 = 0.8002	1189.2	1185.6	1182.2	–	–	–	1626	1612	1602
[4], x1 = 0.8992	1203.1	1199.7	1196.3	–	–	–	1650	1636	1626
[4], x1 = 0.9498	1209.5	1206.1	1202.7	–	–	–	1659	1645	1633
[4], x1 = 1	1215.6	1212.2	1208.8	–	–	–	1671	1658	1645
